The CombiSolv-Exp solvation set (Vermeire and Green 2021)

Assay: solvent given as SMILES

C1CCCCCCC1
Conditions	solvation free energy, 298 K [kcal/mol]
in CCCCCCCCCCCCCCCC	-5.55
in CN1CCCC1=O	-4.77
in CN(C)C=O	-4.39
in COCCO	-4.52
in CS(C)=O	-3.85
in N#CCCCCC#N	-4.01
in NCCO	-3
in O	0.91

CC(=O)OCC=C(C)CCC=C(C)CCC=C(C)C
Conditions	solvation free energy, 298 K [kcal/mol]
in O	-3.96

CCCC(C)(C)C
Conditions	solvation free energy, 298 K [kcal/mol]
in C=CCCCCCCCCCCCCCC	-3.7
in CC#N	-2.7
in CN1CCCC1=O	-2.66
in O	2.88

BrCBr
Conditions	solvation free energy, 298 K [kcal/mol]
in CCCCCCCCCCCCCCCC	-3.87
in CCCCCCCCO	-4.19
in O	-2.01
in [2H]O[2H]	-2.03

O=C(O)Cc1ccccc1Nc1c(Cl)cccc1Cl
Conditions	solvation free energy, 298 K [kcal/mol]
in C1COCCO1	-19.7
in CCCCCO	-18.4
in CCO	-18.5
in CN(C)C=O	-20
in CO	-18.5
in Clc1ccccc1	-17.7
in NC=O	-17.8

Clc1cc2c(cc1Cl)Oc1cc(Cl)c(Cl)cc1O2
Conditions	solvation free energy, 298 K [kcal/mol]
in O	-3.37

OCc1ccccc1O
Conditions	solvation free energy, 298 K [kcal/mol]
in O	-10.2

CCCN(CCC)c1c([N+](=O)[O-])cc(C(F)(F)F)cc1[N+](=O)[O-]
Conditions	solvation free energy, 298 K [kcal/mol]
in O	-3.25

CCCCCCCN
Conditions	solvation free energy, 298 K [kcal/mol]
in CCCCCCC	-6.22

Oc1cccc(O)c1
Conditions	solvation free energy, 298 K [kcal/mol]
in CCCCCC	-5.78
in CCCCCCC	-5.84
in CCCCCCCC	-5.85
in Cc1ccc(C)cc1	-8.35
in Cc1cccc(C)c1	-8.33
in Cc1ccccc1C	-8.33
in O	-11.4

CC(C)CCOC(=O)c1ccccc1C(=O)OCCC(C)C
Conditions	solvation free energy, 298 K [kcal/mol]
in O	-6.88

O=[N+]([O-])c1ccc(Cl)c(Cl)c1Cl
Conditions	solvation free energy, 298 K [kcal/mol]
in CCCCCCCCC=CCCCCCCCC(=O)OCC(COC(=O)CCCCCCCC=CCCCCCCCC)OC(=O)CCCCCCCC=CCCCCCCCC	-10.1
in O	-4.07

CC=CC=O
Conditions	solvation free energy, 298 K [kcal/mol]
in O=CN1CCOCC1	-4.69

CCOCCOC
Conditions	solvation free energy, 298 K [kcal/mol]
in ClC(Cl)(Cl)Cl	-5.85

Nc1cccc(Cl)c1
Conditions	solvation free energy, 298 K [kcal/mol]
in O	-5.9

CC=CC
Conditions	solvation free energy, 298 K [kcal/mol]
in CC(=O)N(C)C	-2.17
in CC(C)=O	-2.47
in CCOC(C)=O	-2.77
in CN(C)C=O	-2.11
in O	1.34
in O=CN1CCOCC1	-1.45

CC(C)C(C)C(C)C
Conditions	solvation free energy, 298 K [kcal/mol]
in Brc1ccccc1	-4.64
in C1CCCCC1	-5.1
in C1CCOC1	-4.92
in C1COCCO1	-4.17
in C=CCCCC	-5
in C=CCCCCCC	-4.92
in C=CCCCCCCCC	-4.84
in CC1COC(=O)O1	-2.86
in CC#N	-3.46
in CC(=O)N(C)C	-3.7
in CC(=O)O	-3.77
in CC(=O)c1ccccc1	-3.96
in CC(C)=O	-4.14
in CC(C)CC(C)(C)C	-4.9
in CC(C)CCCC(C)CCCC(C)CCCCC(C)CCCC(C)CCCC(C)C	-4.48
in CC(C)CCO	-4.31
in CC(C)O	-4.09
in CC(C)OC(C)C	-4.9
in CCBr	-5.01
in CCC#N	-3.86
in CCC(C)=O	-4.39
in CCCC#N	-4.14
in CCCC(=O)OCC	-4.61
in CCCC(C)=O	-4.49
in CCCCC	-5.05
in CCCCCC	-5.03
in CCCCCC(C)=O	-4.51
in CCCCCCC	-4.98
in CCCCCCCC	-4.91
in CCCCCCCCC	-4.87
in CCCCCCCCCC	-4.84
in CCCCCCCCCCCC	-4.74
in CCCCCCCCCCCCCCCC	-4.66
in CCCCCCCCO	-4.33
in CCCCCCOC(C)=O	-4.59
in CCCCO	-4.23
in CCCCOC(C)=O	-4.56
in CCCCOCCCC	-4.88
in CCCO	-4.1
in CCN(CC)CC	-4.98
in CCO	-4.02
in CCOC(C)=O	-4.41
in CCOCC	-4.96
in CCOCCOCCOCC	-4.33
in CCOc1ccccc1	-4.42
in CN1CCCC1=O	-3.6
in CN(C)C=O	-3.53
in CN(C)P(=O)(N(C)C)N(C)C	-3.97
in CNC=O	-3.19
in CO	-3.64
in COC(C)=O	-4.22
in COCCO	-3.52
in COc1ccccc1	-4.35
in CS(C)=O	-2.63
in Cc1ccc(C)cc1	-4.85
in Cc1ccccc1	-4.85
in Cc1ccccn1	-4.45
in ClC(Cl)(Cl)Cl	-5.09
in ClC(Cl)Cl	-4.98
in ClCCCl	-4.4
in ClCCl	-4.74
in Clc1ccccc1	-4.84
in FC(F)(F)C(F)(F)C(F)(F)C(F)(F)C(F)(F)C(F)(F)C(F)(F)C(F)(F)F	-3.34
in FC(F)(F)C(F)(F)C(F)(F)C(F)(F)C(F)(F)C(F)(F)F	-3.4
in Fc1ccccc1	-4.75
in ICI	-2.94
in N#Cc1ccccc1	-4.01
in Nc1ccccc1	-3.27
in O	2.57
in O=C1CCCCC1	-4.32
in O=C1CCCO1	-3.01
in OCc1ccccc1	-3.52
in S=C=S	-5.06
in c1ccccc1	-4.83
in c1ccncc1	-4.17

CC(C)CCC(C)C
Conditions	solvation free energy, 298 K [kcal/mol]
in Brc1ccccc1	-4.53
in C1CCCCC1	-5.02
in C1CCOC1	-4.85
in C1COCCO1	-4.04
in C=CCCCC	-4.95
in C=CCCCCCC	-4.85
in C=CCCCCCCCC	-4.75
in CC1COC(=O)O1	-2.64
in CC#N	-3.31
in CC(=O)N(C)C	-3.54
in CC(=O)O	-3.59
in CC(=O)c1ccccc1	-3.84
in CC(C)=O	-4.03
in CC(C)CC(C)(C)C	-4.84
in CC(C)CCCC(C)CCCC(C)CCCCC(C)CCCC(C)CCCC(C)C	-4.35
in CC(C)CCO	-4.21
in CC(C)O	-3.99
in CC(C)OC(C)C	-4.85
in CCBr	-4.97
in CCC#N	-3.76
in CCC(C)=O	-4.29
in CCCC#N	-4
in CCCC(=O)OCC	-4.52
in CCCC(C)=O	-4.38
in CCCCC	-5.01
in CCCCCC	-4.97
in CCCCCC(C)=O	-4.4
in CCCCCCC	-4.9
in CCCCCCCC	-4.83
in CCCCCCCCC	-4.79
in CCCCCCCCCC	-4.74
in CCCCCCCCCCCC	-4.63
in CCCCCCCCCCCCCCCC	-4.53
in CCCCCCCCO	-4.21
in CCCCCCOC(C)=O	-4.48
in CCCCO	-4.1
in CCCCOC(C)=O	-4.46
in CCCCOCCCC	-4.81
in CCCO	-4.07
in CCN(CC)CC	-4.89
in CCO	-3.92
in CCOC(C)=O	-4.31
in CCOCC	-4.91
in CCOCCOCCOCC	-4.23
in CCOc1ccccc1	-4.31
in CN1CCCC1=O	-3.42
in CN(C)C=O	-3.35
in CN(C)P(=O)(N(C)C)N(C)C	-3.84
in CNC=O	-2.97
in CO	-3.55
in COC(C)=O	-4.11
in COCCO	-3.43
in COc1ccccc1	-4.22
in CS(C)=O	-2.41
in Cc1ccc(C)cc1	-4.77
in Cc1ccccc1	-4.76
in Cc1ccccn1	-4.33
in ClC(Cl)(Cl)Cl	-5.01
in ClC(Cl)Cl	-4.88
in ClCCCl	-4.29
in ClCCl	-4.64
in Clc1ccccc1	-4.75
in FC(F)(F)C(F)(F)C(F)(F)C(F)(F)C(F)(F)C(F)(F)C(F)(F)C(F)(F)F	-3.22
in FC(F)(F)C(F)(F)C(F)(F)C(F)(F)C(F)(F)C(F)(F)F	-3.3
in Fc1ccccc1	-4.66
in ICI	-2.71
in N#Cc1ccccc1	-3.85
in Nc1ccccc1	-3.11
in O	2.78
in O=C1CCCCC1	-4.2
in O=C1CCCO1	-2.85
in OCc1ccccc1	-3.33
in S=C=S	-4.94
in c1ccccc1	-4.76
in c1ccncc1	-4.06

CCc1cccc2ccccc12
Conditions	solvation free energy, 298 K [kcal/mol]
in O	-2.3

c1ccc2cc3ccccc3cc2c1
Conditions	solvation free energy, 298 K [kcal/mol]
in Brc1ccccc1	-11.6
in C1CCOC1	-11.9
in C1COCCO1	-11.5
in CC(=O)N(C)C	-11.5
in CC(C)(C)O	-9.71
in CC(C)=O	-11.2
in CC(C)CC(C)(C)C	-9.93
in CC(C)CC(C)O	-9.89
in CC(C)CCCC(C)CCO	-10.2
in CC(C)CCO	-9.93
in CC(C)CO	-9.77
in CC(C)O	-10
in CC(C)OC(C)C	-10.5
in CC(C)OCCO	-10.8
in CC(O)COC(C)(C)C	-10.5
in CCC(C)(C)O	-9.99
in CCC(C)=O	-11.3
in CCC(C)O	-9.9
in CCCC(=O)OC	-11.2
in CCCC(C)CO	-10
in CCCC(C)O	-9.99
in CCCCC(CC)CO	-10.1
in CCCCCC	-10.2
in CCCCCCC	-10.2
in CCCCCCCC	-10.2
in CCCCCCCCCC	-10.3
in CCCCCCCCCCO	-10.5
in CCCCCCCCO	-10.3
in CCCCCCCO	-10.3
in CCCCCCO	-10.3
in CCCCCO	-10.2
in CCCCCOC(C)=O	-11.1
in CCCCCl	-11.2
in CCCCO	-10.1
in CCCCOC(C)=O	-11.1
in CCCCOCCCC	-10.6
in CCCCOCCO	-10.8
in CCCO	-10
in CCCOC(C)=O	-11.1
in CCCOCCO	-10.8
in CCO	-10.4
in CCOC(C)=O	-11.1
in CCOCC	-10.9
in CCOCCO	-10.7
in CN1CCCC1=O	-12
in CN(C)C=O	-11.6
in CNC=O	-10.4
in CO	-9.89
in COC(C)(C)C	-10.7
in COC(C)=O	-11.1
in COC(C)CCO	-10.7
in COCCO	-10.8
in Cc1ccc(C)cc1	-11.2
in Cc1cccc(C)c1	-11.3
in Cc1ccccc1C	-11.5
in ClC(Cl)(Cl)Cl	-11.2
in ClC(Cl)Cl	-11.5
in ClCCl	-11.8
in Clc1ccccc1	-11.5
in Fc1ccccc1	-11.3
in N#Cc1ccccc1	-11.4
in O	-4.12
in O=C1CCCCC1	-11.6
